Assay results reported in US20200291018A1, “TAM KINASE INHIBITORS” (SYROS PHARMACEUTICALS, INC., priority 2017, published 2020).

Key:
FLT3 = target: T1, FLT3 (Homo sapiens, UniProt P36888); assay: TR-FRET kinase activity assay, FLT3; type: biochemical; details: ATP at Km, 60 minutes
T1 sequence (P36888 27-993): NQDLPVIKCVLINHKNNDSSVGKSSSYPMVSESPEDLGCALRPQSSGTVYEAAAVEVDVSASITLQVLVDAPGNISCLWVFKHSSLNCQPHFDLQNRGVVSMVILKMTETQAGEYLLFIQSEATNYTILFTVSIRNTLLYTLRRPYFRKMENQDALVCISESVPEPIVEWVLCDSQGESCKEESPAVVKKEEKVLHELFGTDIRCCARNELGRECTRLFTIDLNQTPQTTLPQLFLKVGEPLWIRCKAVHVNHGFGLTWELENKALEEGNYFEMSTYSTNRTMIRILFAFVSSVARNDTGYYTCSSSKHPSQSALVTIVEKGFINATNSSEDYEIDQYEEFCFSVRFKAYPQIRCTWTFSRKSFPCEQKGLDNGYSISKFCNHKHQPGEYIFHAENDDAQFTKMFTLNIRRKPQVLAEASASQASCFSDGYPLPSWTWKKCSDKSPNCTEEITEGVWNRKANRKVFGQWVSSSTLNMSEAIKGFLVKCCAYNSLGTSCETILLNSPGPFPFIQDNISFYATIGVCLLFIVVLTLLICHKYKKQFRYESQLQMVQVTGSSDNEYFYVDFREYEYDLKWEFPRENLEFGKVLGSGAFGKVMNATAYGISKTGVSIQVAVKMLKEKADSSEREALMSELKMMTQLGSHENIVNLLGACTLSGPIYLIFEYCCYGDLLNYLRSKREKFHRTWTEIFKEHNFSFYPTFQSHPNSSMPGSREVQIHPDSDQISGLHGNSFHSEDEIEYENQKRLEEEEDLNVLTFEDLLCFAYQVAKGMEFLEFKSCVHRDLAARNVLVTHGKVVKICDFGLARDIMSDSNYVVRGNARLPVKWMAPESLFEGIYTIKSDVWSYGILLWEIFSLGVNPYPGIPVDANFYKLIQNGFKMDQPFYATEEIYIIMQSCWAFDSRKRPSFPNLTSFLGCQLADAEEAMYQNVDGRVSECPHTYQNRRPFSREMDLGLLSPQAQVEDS
Summary of the method: (§1)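 TR-FRET signal from Eu-labeled phospho-site antibody bound to tyrosine-phosphorylated fluorescent peptide; inhibition lowers signal, giving IC50. Reactions: 50 mM HEPES pH 7.5, 10 mM MgCl2, 1 mM EGTA, 0.01% Brij 35, 1 mM DTT, ATP at Km per enzyme, 60 min, RT.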

MERTK = target: T2, MERTK (Homo sapiens, UniProt Q12866); assay: TR-FRET kinase activity assay, MERTK; type: biochemical; details: for IC50: TR-FRET activity assay, ATP at Km, 60 minutes, read-out: Mer IC50; for Mer/Flt3 ratio (FLT3 IC50/Mer IC50): ratio calculated as FLT3 IC50/Mer IC50
T2 sequence (Q12866 21-999): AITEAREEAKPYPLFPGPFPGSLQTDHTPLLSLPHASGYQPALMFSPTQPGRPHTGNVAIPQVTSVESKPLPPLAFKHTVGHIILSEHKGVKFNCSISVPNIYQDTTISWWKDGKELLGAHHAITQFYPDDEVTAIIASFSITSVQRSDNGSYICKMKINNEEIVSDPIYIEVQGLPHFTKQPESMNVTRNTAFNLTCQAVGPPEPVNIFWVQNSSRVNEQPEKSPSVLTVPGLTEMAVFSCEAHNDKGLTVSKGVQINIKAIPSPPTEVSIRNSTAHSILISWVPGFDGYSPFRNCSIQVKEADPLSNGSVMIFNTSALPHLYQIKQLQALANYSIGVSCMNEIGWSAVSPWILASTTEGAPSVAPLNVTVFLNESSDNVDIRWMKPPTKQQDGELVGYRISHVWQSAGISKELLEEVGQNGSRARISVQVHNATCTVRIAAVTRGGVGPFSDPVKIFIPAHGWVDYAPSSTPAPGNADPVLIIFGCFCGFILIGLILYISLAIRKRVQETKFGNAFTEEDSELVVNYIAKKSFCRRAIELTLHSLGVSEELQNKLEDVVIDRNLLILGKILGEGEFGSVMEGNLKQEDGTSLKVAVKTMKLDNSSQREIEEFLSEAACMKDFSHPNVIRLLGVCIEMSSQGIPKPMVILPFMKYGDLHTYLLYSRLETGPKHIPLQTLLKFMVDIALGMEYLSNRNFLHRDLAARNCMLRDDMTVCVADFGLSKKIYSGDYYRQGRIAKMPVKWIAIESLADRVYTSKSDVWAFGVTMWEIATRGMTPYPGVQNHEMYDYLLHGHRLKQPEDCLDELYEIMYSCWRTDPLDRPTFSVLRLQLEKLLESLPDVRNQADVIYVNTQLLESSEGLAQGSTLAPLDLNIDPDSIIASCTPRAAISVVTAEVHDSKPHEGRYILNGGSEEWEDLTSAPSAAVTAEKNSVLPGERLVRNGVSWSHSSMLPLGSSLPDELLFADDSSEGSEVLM
Summary of the method: as §1

IC50 (FLT3)	IC50 (MERTK)	Mer/Flt3 ratio (FLT3 IC50/Mer IC50) (MERTK)	Compound
1000 to 10000 nM	≤ 100 nM	+++ (a ratio of >100)	CC[C@H](C)Nc1ncc2c(=O)n(CC34CCC(N)(CC3)CC4)cc([C@H]3CC[C@H](O)CC3)c2n1 [Compound 251]
1000 to 10000 nM	1000 to 10000 nM	++ (a ratio of between 10 and 100)	CCOc1ncc(CC2CCN(C)CC2)c2nc(N[C@@H](C)CC)ncc12 [Compound 253]
1000 to 10000 nM	1000 to 10000 nM	+ (a ratio of >2.0 and <10)	CCOc1ncc(CC2CCN(C(=O)OC(C)(C)C)CC2)c2nc(N[C@@H](C)CC)ncc12 [Compound 254]
1000 to 10000 nM	≤ 100 nM	+++ (a ratio of >100)	CC[C@H](C)Nc1ncc2c(C)ncc([C@H]3CC[C@H](O)CC3)c2n1 [Compound 255]
1000 to 10000 nM	≤ 100 nM	+++ (a ratio of >100)	CC[C@H](C)Nc1ncc2c(OCC34CCC(O)(CC3)CC4)ncc([C@H]3CC[C@H](O)CC3)c2n1 [Compound 256]
1000 to 10000 nM	≤ 100 nM	+++ (a ratio of >100)	CC[C@H](C)Nc1ncc2c(=O)n(CC34CCC(O)(CC3)CC4)cc([C@H]3CC[C@H](O)CC3)c2n1 [Compound 257]
1000 to 10000 nM	≤ 100 nM	+++ (a ratio of >100)	COC[C@H](C)Nc1ncc2c(OC3CC(C)(C)N(C)C(C)(C)C3)ncc([C@H]3CC[C@H](O)CC3)c2n1 [Compound 259]
1000 to 10000 nM	≤ 100 nM	+++ (a ratio of >100)	COC[C@H](C)Nc1ncc2c(O[C@H]3CC[C@H](O)CC3)ncc([C@H]3CC[C@H](O)CC3)c2n1 [Compound 260]
100 to 1000 nM	≤ 100 nM	++ (a ratio of between 10 and 100)	CC[C@H](C)Nc1ncc2c(O[C@H]3CC[C@H](C(C)(C)O)CC3)ncc([C@H]3CC[C@H](O)CC3)c2n1 [Compound 261]
100 to 1000 nM	≤ 100 nM	++ (a ratio of between 10 and 100)	O[C@H]1CC[C@H](c2cnc(OC3CCNCC3)c3cnc(Nc4ccccc4F)nc32)CC1 [Compound 262]
1000 to 10000 nM	≤ 100 nM	+++ (a ratio of >100)	CC[C@H](C)Nc1ncc2c(=O)n(C[C@@H]3COCCN3C)cc([C@H]3CC[C@H](O)CC3)c2n1 [Compound 263]
1000 to 10000 nM	≤ 100 nM	+++ (a ratio of >100)	CC[C@H](C)Nc1ncc2c(=O)n(CC34CCC(N(C)C)(CC3)CC4)cc([C@H]3CC[C@H](O)CC3)c2n1 [Compound 264]
1000 to 10000 nM	≤ 100 nM	+++ (a ratio of >100)	CC[C@H](C)Nc1ncc2c(=O)n(C[C@H]3COCCN3C)cc([C@H]3CC[C@H](O)CC3)c2n1 [Compound 265]
1000 to 10000 nM	≤ 100 nM	+++ (a ratio of >100)	CC[C@H](C)Nc1ncc2c(=O)n([C@H]3CC[C@H](N(C)C)C3)cc([C@H]3CC[C@H](O)CC3)c2n1 [Compound 266]
100 to 1000 nM	≤ 100 nM	+++ (a ratio of >100)	CC[C@H](C)Nc1ncc2c(O[C@H]3CC[C@H](N(C)C)C3)ncc([C@H]3CC[C@H](O)CC3)c2n1 [Compound 267]
1000 to 10000 nM	≤ 100 nM	+++ (a ratio of >100)	CC(C)(C)Nc1ncc2c(OC3CCNCC3)ncc([C@H]3CC[C@H](O)CC3)c2n1 [Compound 268]
≤ 100 nM	≤ 100 nM	+ (a ratio of >2.0 and <10)	O[C@H]1CC[C@H](c2cnc(OC3CCNCC3)c3cnc(Nc4ccc(F)cc4)nc32)CC1 [Compound 269]
≤ 100 nM	≤ 100 nM	+ (a ratio of >2.0 and <10)	O[C@H]1CC[C@H](c2cnc(OC3CCNCC3)c3cnc(Nc4cccc(F)c4)nc32)CC1 [Compound 270]
1000 to 10000 nM	≤ 100 nM	+++ (a ratio of >100)	CC[C@H](C)Nc1ncc2c(=O)n(-c3ccc(N)cc3)cc([C@H]3CC[C@H](O)CC3)c2n1 [Compound 271]
100 to 1000 nM	≤ 100 nM	+ (a ratio of >2.0 and <10)	COC(=O)c1ccc(Nc2ncc3c(OC4CCNCC4)ncc([C@H]4CC[C@H](O)CC4)c3n2)cc1 [Compound 272]
1000 to 10000 nM	≤ 100 nM	+++ (a ratio of >100)	CCOc1ncc([C@H]2CC[C@H](O)CC2)c2nc(N[C@@H](C)COC)ncc12 [Compound 273]
1000 to 10000 nM	≤ 100 nM	++ (a ratio of between 10 and 100)	CC(C)Nc1ncc2c(OC3CCOCC3)ncc(-c3cccc(CC#N)c3)c2n1 [Compound 274]
1000 to 10000 nM	≤ 100 nM	+++ (a ratio of >100)	CC[C@H](C)Nc1ncc2c(OC3C[C@@H](C)O[C@@H](C)C3)ncc([C@H]3CC[C@H](O)CC3)c2n1 (stereo partly drawn) [Compound 275]
1000 to 10000 nM	1000 to 10000 nM	++ (a ratio of between 10 and 100)	CC(C)Nc1ncc2c(OC3CCOCC3)ncc(-c3cccc(CC(=O)O)c3)c2n1 [Compound 276]
1000 to 10000 nM	1000 to 10000 nM	NS (a ratio of ≤2.0)	O[C@H]1CC[C@H](c2cnc(OC3CCOCC3)c3cnc(N[C@H]4CCNC4)nc32)CC1 [Compound 277]
